Experimental data as given in patent US10246453B2, “Benzenesulfonamide compounds and their use as therapeutic agents” (Xenon Pharmaceuticals Inc., priority 2016, dated 2019).
Where a name gives a salt, the structure may show the parent alone.

What was measured:
NaV1.6 = NaV1.6 (Homo sapiens (Human), UniProt Q9UQD0); test: Sodium Influx Assay (Flux), NaV1.6; conditions: read-out: Flux NaV1.6 IC50; Trex HEK293 cells, ANG2 dye; arithmetic mean
NaV1.5 = NaV1.5 (Homo sapiens (Human), UniProt Q14524); test: Sodium Influx Assay (Flux), NaV1.5; conditions: read-out: Flux NaV1.5 IC50; Trex HEK293 cells, ANG2 dye; arithmetic mean
NaV1.1 = NaV1.1 (Homo sapiens (Human), UniProt P35498); test: Sodium Influx Assay (Flux), NaV1.1; assay type: cell-based; conditions: Trex HEK293 cells, ANG2 dye; arithmetic mean

Chain of NaV1.5 (Q14524 other isoform, or with tags, fused parts or gaps): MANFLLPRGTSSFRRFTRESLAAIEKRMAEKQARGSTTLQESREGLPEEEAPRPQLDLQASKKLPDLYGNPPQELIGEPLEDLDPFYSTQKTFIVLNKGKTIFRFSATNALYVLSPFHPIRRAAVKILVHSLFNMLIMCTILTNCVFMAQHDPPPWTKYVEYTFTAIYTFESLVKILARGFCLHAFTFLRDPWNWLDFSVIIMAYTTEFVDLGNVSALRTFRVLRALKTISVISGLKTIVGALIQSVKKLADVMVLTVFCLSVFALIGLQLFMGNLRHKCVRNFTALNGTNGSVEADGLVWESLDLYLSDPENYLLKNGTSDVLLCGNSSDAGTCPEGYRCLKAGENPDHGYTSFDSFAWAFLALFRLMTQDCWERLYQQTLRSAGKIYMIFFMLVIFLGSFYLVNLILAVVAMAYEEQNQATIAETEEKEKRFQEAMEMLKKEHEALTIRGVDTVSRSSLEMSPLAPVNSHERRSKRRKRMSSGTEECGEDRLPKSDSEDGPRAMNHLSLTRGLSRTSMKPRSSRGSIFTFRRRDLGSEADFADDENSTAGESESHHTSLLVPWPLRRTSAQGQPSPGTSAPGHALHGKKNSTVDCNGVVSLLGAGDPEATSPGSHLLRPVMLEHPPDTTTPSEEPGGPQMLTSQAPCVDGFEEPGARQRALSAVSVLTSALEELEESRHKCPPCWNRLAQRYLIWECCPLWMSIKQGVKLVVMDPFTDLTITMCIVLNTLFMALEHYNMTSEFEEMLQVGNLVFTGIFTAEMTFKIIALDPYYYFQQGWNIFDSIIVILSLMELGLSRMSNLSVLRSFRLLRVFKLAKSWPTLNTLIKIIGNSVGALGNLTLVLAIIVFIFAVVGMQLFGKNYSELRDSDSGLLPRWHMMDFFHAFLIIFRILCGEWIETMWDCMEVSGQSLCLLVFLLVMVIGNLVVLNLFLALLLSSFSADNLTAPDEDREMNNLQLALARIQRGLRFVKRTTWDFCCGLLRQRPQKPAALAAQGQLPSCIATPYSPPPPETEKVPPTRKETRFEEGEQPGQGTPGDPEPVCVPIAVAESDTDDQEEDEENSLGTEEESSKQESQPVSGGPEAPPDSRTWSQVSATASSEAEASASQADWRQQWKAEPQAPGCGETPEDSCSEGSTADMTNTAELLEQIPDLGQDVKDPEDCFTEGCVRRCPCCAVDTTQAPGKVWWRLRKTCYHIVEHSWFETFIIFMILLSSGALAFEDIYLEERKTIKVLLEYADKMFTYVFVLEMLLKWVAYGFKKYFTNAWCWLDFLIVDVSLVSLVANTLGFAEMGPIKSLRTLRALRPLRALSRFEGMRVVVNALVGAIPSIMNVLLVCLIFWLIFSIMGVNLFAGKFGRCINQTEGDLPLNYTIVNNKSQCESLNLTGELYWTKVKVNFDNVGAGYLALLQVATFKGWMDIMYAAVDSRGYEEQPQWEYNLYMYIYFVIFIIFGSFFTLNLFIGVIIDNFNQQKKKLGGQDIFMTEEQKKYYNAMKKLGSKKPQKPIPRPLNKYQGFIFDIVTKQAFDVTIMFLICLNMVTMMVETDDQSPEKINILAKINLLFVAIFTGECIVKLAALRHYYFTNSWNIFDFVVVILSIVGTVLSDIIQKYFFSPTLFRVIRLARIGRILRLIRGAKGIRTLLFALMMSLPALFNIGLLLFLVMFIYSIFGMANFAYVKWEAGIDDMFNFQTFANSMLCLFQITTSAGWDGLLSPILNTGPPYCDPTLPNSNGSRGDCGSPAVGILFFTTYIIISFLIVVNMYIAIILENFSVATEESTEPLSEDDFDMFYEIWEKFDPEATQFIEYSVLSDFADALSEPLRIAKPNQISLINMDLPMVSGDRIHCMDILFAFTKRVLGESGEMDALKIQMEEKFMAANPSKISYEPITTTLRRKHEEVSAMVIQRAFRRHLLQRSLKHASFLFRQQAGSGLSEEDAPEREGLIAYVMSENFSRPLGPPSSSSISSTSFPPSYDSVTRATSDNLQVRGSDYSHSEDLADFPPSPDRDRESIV

Structure (SMILES) | IC50 (NaV1.6) | IC50 (NaV1.1) | IC50 (NaV1.5)
O=S(=O)(Nc1cccc(F)n1)c1cc(Cl)c(OC2CCN(Cc3ccccc3)CC2)cc1F [Example 78, 4-((1-benzylpiperidin-4-yl)oxy)-5-chloro-2-fluoro-N-(6-fluoropyridin-2-yl)benzenesulfonamide 2,2,2-trifluoroacetate] | 6.6 µM | 8.17 µM | 2.86 µM
C[C@H](c1ccccc1)N1CCC(Oc2ccc(S(=O)(=O)Nc3cscn3)c(F)c2Cl)CC1 [Example 227, (R)-3-chloro-2-fluoro-4-((1-(1-phenylethyl)piperidin-4-yl)oxy)-N-(thiazol-4-yl)benzenesulfonamide formate] | 0.855 µM | > 30 µM | > 30 µM
CCN(c1cc(F)c(S(=O)(=O)Nc2cscn2)cc1C)[C@H]1CCN(Cc2ccccc2)C1 [Example 312, (S)-4-((1-benzylpyrrolidin-3-yl)(ethyl)amino)-2-fluoro-5-methyl-N-(thiazol-4-yl)benzenesulfonamide 2,2,2-trifluoroacetate] | 2.77 µM | 10.2 µM | 6.45 µM
Cc1ccc(CN2CC[C@H](N(C)c3cc(F)c(S(=O)(=O)Nc4cscn4)cc3Cl)C2)c(F)c1 [Example 167, (S)-5-chloro-2-fluoro-4-((1-(2-fluoro-4-methylbenzyl)pyrrolidin-3-yl)(methyl)amino)-N-(thiazol-4-yl)benzene-sulfonamide] | 1.69 µM | 6.44 µM | 8.85 µM
Cc1c(N(C)[C@H]2CCN(Cc3cccc(C(F)F)c3)C2)ccc(S(=O)(=O)Nc2cscn2)c1F [Example 323, (S)-4-((1-(3-(difluoromethyl)benzyl)-pyrrolidin-3-yl)(methyl)amino)-2-fluoro-3-methyl-N-(thiazol-4-yl)benzenesulfonamide] | 0.209 µM | 12.3 µM | 13.6 µM
Cc1cc(S(=O)(=O)Nc2cscn2)c(F)cc1N(C)[C@H]1CCN(CC(C)(C)C)C1 [Example 124, (S)-2-fluoro-5-methyl-4-(methyl(1-neopentylpyrrolidin-3-yl)amino)-N-(thiazol-4-yl)benzenesulfonamide formate] | 9.92 µM | > 30 µM | > 30 µM
Cc1cc(S(=O)(=O)Nc2cscn2)c(F)cc1N(C)[C@H]1CCN(Cc2ccccn2)C1 [Example 278, (S)-2-fluoro-5-methyl-4-(methyl(1-(pyridin-2-ylmethyl)pyrrolidin-3-yl)amino)-N-(thiazol-4-yl)benzenesulfonamide 2,2,2-trifluoroacetate] | 0.893 µM | > 30 µM | > 30 µM
CN(c1ccc(S(=O)(=O)Nc2cscn2)c(F)c1Cl)[C@H]1CCN(Cc2ccccc2)C1 [Example 328, (S)-4-((1-benzylpyrrolidin-3-yl)(methyl)amino)-3-chloro-2-fluoro-N-(thiazol-4-yl)benzenesulfonamide 2,2,2-trifluoroacetate] | 0.786 µM | 16.3 µM | 18.3 µM
C[C@@H]1CN(Cc2ccccc2)C[C@@H]1Nc1ccc(S(=O)(=O)Nc2nccs2)cc1Cl (relative stereo) [Example 75, 4-((cis-1-benzyl-4-methylpyrrolidin-3-yl)amino)-3-chloro-N-(thiazol-2-yl)benzenesulfonamide] | 0.661 µM | 4.19 µM | 8.99 µM
Cc1cc(C)cc(CN2CCC(Oc3ccc(S(=O)(=O)Nc4ncns4)cc3Cl)C(C)(C)C2)c1 (stereo not drawn) [Example 3, 3-chloro-4-((1-(3,5-dimethylbenzyl)-3,3-dimethylpiperidin-4-yl)oxy)-N-(1,2,4-thiadiazol-5-yl)benzenesulfonamide 2,2,2-trifluoroacetate] | 6.59 µM | 20.8 µM | 6.17 µM
COc1cccnc1CN1CC[C@H](N(C)c2cc(F)c(S(=O)(=O)Nc3cscn3)cc2C)C1 [Example 120, (S)-2-fluoro-4-((1-((3-methoxypyridin-2-yl)methyl)pyrrolidin-3-yl)(methyl)amino)-5-methyl-N-(thiazol-4-yl)benzenesulfonamide formate] | 0.39 µM | > 30 µM | 22.9 µM
CN(c1cc(F)c(S(=O)(=O)Nc2cscn2)cc1Cl)[C@H]1CCN(Cc2cccc(F)c2)C1 [Example 212, (S)-5-chloro-2-fluoro-4-((1-(3-fluorobenzyl)pyrrolidin-3-yl)(methyl)amino)-N-(thiazol-4-yl)benzenesulfonamide] | 2.14 µM | 10.5 µM | 18.9 µM
CC1(Oc2ccc(S(=O)(=O)Nc3nccs3)cc2Cl)CCN(Cc2ccccc2)CC1 [Example 19, 4-((1-benzyl-4-methylpiperidin-4-yl)oxy)-3-chloro-N-(thiazol-2-yl)benzenesulfonamide] | 3.17 µM | 4.96 µM | 4.68 µM
Cc1cc(S(=O)(=O)Nc2cscn2)c(F)cc1N(C)[C@H]1CCN(CCC(C)(C)C)C1 [Example 125, (S)-4-((1-(3,3-dimethylbutyl)-pyrrolidin-3-yl)(methyl)amino)-2-fluoro-5-methyl-N-(thiazol-4-yl)benzenesulfonamide formate] | 2.32 µM | 14.7 µM | > 30 µM
Cc1cccc(CN2CC[C@H](N(C)c3ccc(S(=O)(=O)Nc4ncns4)cc3Cl)C2)c1F [Example 34, (S)-3-chloro-4-((1-(2-fluoro-3-methylbenzyl)pyrrolidin-3-yl)(methyl)amino)-N-(1,2,4-thiadiazol-5-yl)benzenesulfonamide 2,2,2-trifluoroacetate] | 0.039 µM | 19.9 µM | > 30 µM

More lines, main results first:

IC50 (NaV1.6) | IC50 (NaV1.1) | Structure (SMILES) | IC50 (NaV1.5)
0.828 µM | > 30 µM | Cc1csc(CN2CC[C@H](N(C)c3cc(F)c(S(=O)(=O)Nc4cscn4)cc3C)C2)n1 [Example 129, (S)-2-fluoro-5-methyl-4-(methyl(1-((4-methylthiazol-2-yl)methyl)pyrrolidin-3-yl)amino)-N-(thiazol-4-yl)benzenesulfonamide] | > 30 µM
2.25 µM | 25.9 µM | Cc1cc(S(=O)(=O)Nc2cscn2)c(F)cc1N(C)[C@H]1CCN(Cc2cccc(O)c2)C1 [Example 114, (S)-2-fluoro-4-((1-(3-hydroxybenzyl)-pyrrolidin-3-yl)(methyl)amino)-5-methyl-N-(thiazol-4-yl)benzenesulfonamide] | > 30 µM
0.738 µM | 29.7 µM | C=Cc1c(O[C@H]2CCN(Cc3ccccc3)C2)cc(F)c(S(=O)(=O)Nc2cscn2)c1F [Example 275, (S)-4-((1-benzylpyrrolidin-3-yl)oxy)-2,6-difluoro-N-(thiazol-4-yl)-3-vinylbenzenesulfonamide 2,2,2-trifluoroacetate] | 17.6 µM
6.93 µM | > 30 µM | CN(c1cc(F)c(S(=O)(=O)Nc2cscn2)cc1Cl)[C@H]1CCN(Cc2ccn(C)n2)C1 [Example 183, (S)-5-chloro-2-fluoro-4-(methyl(1-((1-methyl-1H-pyrazol-3-yl)methyl)pyrrolidin-3-yl)amino)-N-(thiazol-4-yl)benzene-sulfonamide] | > 30 µM
1.98 µM | 11.2 µM | C[C@H](c1ccccc1)N1CC[C@H](N(C)c2cc(F)c(S(=O)(=O)Nc3cccc(F)n3)cc2Cl)C1 [Example 45, 5-chloro-2-fluoro-N-(6-fluoropyridin-2-yl)-4-(methyl((S)-1-((R)-1-phenylethyl)pyrrolidin-3-yl)amino)benzenesulfonamide 2,2,2-trifluoroacetate] | > 30 µM
8.42 µM | 7.88 µM | CN(C)c1ccc(CN2CC[C@H](N(C)c3cc(F)c(S(=O)(=O)Nc4cscn4)cc3Cl)C2)cc1 [Example 199, (S)-5-chloro-4-((1-(4-(dimethylamino)benzyl)pyrrolidin-3-yl)(methyl)amino)-2-fluoro-N-(thiazol-4-yl)benzenesulfonamide] | > 30 µM
2 µM | 13.7 µM | CN(c1cc(F)c(S(=O)(=O)Nc2cscn2)cc1Cl)[C@H]1CCN(Cc2ccccc2F)C1 [Example 218, (S)-5-chloro-2-fluoro-4-((1-(2-fluorobenzyl)pyrrolidin-3-yl)(methyl)amino)-N-(thiazol-4-yl)benzenesulfonamide] | 14.2 µM
13.3 µM | 13.3 µM | O=S(=O)(Nc1nccs1)c1ccc(OC2CCN(Cc3ccccc3C(F)(F)F)CC2)c(Cl)c1 [Example 12, 3-chloro-N-(thiazol-2-yl)-4-((1-(2-(trifluoromethyl)benzyl)piperidin-4-yl)oxy)benzenesulfonamide] | 6.35 µM
0.049 µM | 4.1 µM | Cc1cc(S(=O)(=O)Nc2cscn2)c(F)cc1N(C)[C@H]1CCN(Cc2csc(C(C)C)n2)C1 [Example 107, (S)-2-fluoro-4-((1-((2-isopropylthiazol-4-yl)methyl)pyrrolidin-3-yl)(methyl)amino)-5-methyl-N-(thiazol-4-yl)benzenesulfonamide 2,2,2-trifluoroacetate] | 9.6 µM
2.86 µM | > 30 µM | Cc1nc(CN2CC[C@H](N(C)c3cc(F)c(S(=O)(=O)Nc4cscn4)cc3C)C2)co1 [Example 131, (S)-2-fluoro-5-methyl-4-(methyl(1-((2-methyloxazol-4-yl)methyl)pyrrolidin-3-yl)amino)-N-(thiazol-4-yl)benzenesulfonamide] | > 30 µM
1.47 µM | 24.7 µM | Cc1cc(S(=O)(=O)Nc2cccc(F)n2)c(F)cc1N(C)[C@H]1CCN(Cc2ccccc2)C1 [Example 308, (S)-4-((1-benzylpyrrolidin-3-yl)(methyl)amino)-2-fluoro-N-(6-fluoropyridin-2-yl)-5-methylbenzenesulfonamide] | > 30 µM
1.38 µM | 7.31 µM | CN(c1cc(F)c(S(=O)(=O)Nc2cscn2)cc1Cl)[C@H]1CCN(Cc2cc(F)ccc2F)C1 [Example 207, (S)-5-chloro-4-((1-(2,5-difluorobenzyl)pyrrolidin-3-yl)(methyl)amino)-2-fluoro-N-(thiazol-4-yl)benzenesulfonamide] | 7.48 µM
